Reference: patent US20160050930A1, “METHODS OF CONTROLLING NEONICOTINOID RESISTANT PESTS” (SYNGENTA PARTICIPATIONS AG, priority 2013, published 2016)
Where a name gives a salt, the structure may show the parent alone.

melting point | SMILES
125 to 127 °C | CC(C)(C)OC(=O)N1[C@@H]2CC[C@H]1C[C@](C#N)(c1cncc(Br)c1)C2
128 to 130 °C | N#C[C@@]1(c2cncc(Br)c2)C[C@H]2CC[C@@H](C1)N2
152 to 153 °C | N#C[C@@]1(c2cncc(Br)c2)C[C@H]2C=C[C@@H](C1)N2
91 to 93 °C | N#C[C@@]1(c2cncc(F)c2)C[C@H]2C=C[C@@H](C1)N2C1CCC1
170 to 171 °C | N#C[C@@]1(c2cncc(I)c2)C[C@H]2C=C[C@@H](C1)N2C1COC1
176 to 178 °C | N#C[C@@]1(c2cncc(Br)c2)C[C@H]2CC[C@@H](C1)N2 (as salt: TFA)
